According to US9492501B2, “Antiviral agent” (priority 2009, dated 2016):

What was measured:
[1] = system: HIV-1 promoter (HIV-1 LTR); test: HIV-1 transcriptional activity, luciferase test in HIV-LTR Jurkat line; type: cell-based; conditions: 10 μM AZT, treatment 24 hours, FIG. 5 (luciferase activity)
Description: (§1) Method: a Jurkat CD4+ T lymphocyte cell line (line 1G5) having integrated into its genome a construction comprising a luciferase reporter gene the expression of which is controlled by the HIV-1 promoter (HIV-1 LTR; HIV-LTR Jurkat line) was used. The measurement of luciferase activity from the cell extracts therefore makes it possible to estimate the HIV-1 transcriptional activity.
(§2) The Jurkat HIV-LTR and Jurkat 1G5 lines were transfected by means of the DEAE-dextran technique with the proviral genome NL4.3 (complete HIV-1 genome, strain LAI).
(§3) The HIV-LTR Jurkat and 1G5 Jurkat lines thus infected, are treated 24 hours later with HPBP/PON protein complexes or with purified PON or HPBP proteins at a final concentration of 2 μg/mL of medium (52 nM of protein alone).
(§4) The cells and the cell supernatant are sampled after treatment for 24 hours.
(§5) The transcriptional activity is measured by carrying out a luciferase test. The intensity of the HIV-1 replication is measured by means of ELISA assay of the quantity of viral p24 capsid proteins present in the supernatant of the cell cultures of the infected 1G5 lines [Rohr, O., et al. (2000). The Journal of Biological Chemistry 275, 2654-2660]. […]
(§6) The transcriptional activity and inhibition of the replication are measured as described in Example 6.

[2] = system: HIV-1 (proviral genome NL4.3, strain LAI); test: HIV-1 replication, ELISA of viral p24 capsid protein in supernatant of infected Jurkat 1G5 cells; type: cell-based; conditions: Human immunodeficiency virus 1; 10 μM AZT, treatment 24 hours, p24 in supernatant, Jurkat 1G5
Description: as §1, §2, §3, §4, §5, §6

Cc1cn([C@H]2C[C@H](N=[N+]=[N-])[C@@H](CO)O2)c(=O)[nH]c1=O [AZT, zidovudine, reference compound]
effect on the replication of the virus (FIG. 5) [1]: no effect | inhibition at 10 µM [2]: 60%
